Data reported in PMC5593639, “NSC30049 inhibits Chk1 pathway in 5-FU-resistant CRC bulk and stem cell populations” (Oncotarget, 2017).

Tests used:
LS174T cells = assay: Cell survival (MTT assay), LS174T; type: cell-based; conditions: Homo sapiens, drug alone, 48 h
Method: (§1) The survival of cells was determined by MTT (3-(4,5-Dimethylthiazol-2yl-)-2,5-diphenyl tetrazolium bromide) assay (ATCC, Manassas, VA, USA). In principle, the viable cell number is directly proportional to the purple formazan color of the reduced MTT dye, which can be quantitatively measured by spectrophotometry. Briefly, 1,500 cells were plated in quadruplets in 96-well flat-bottom tissue culture plates. After treatment with compounds for certain periods as described in respective figure legends, 10 μl of MTT reagent was added to each well and incubated at 37°C for 4 h to allow the formation of purple color crystals of formazan. In total, 100 μl of detergent solution was added to each well, and the reaction mixture was incubated in dark for 2–4 h at room temperature. The developed color density was then measured spectrophotometrically at 570 nm using the POLARstar Omega micro-plate reader (BMG Labtech, Inc., Cary, NC, USA).

[1] = test system: FOLFOX-resistant-HCT116 cells; assay: Cell survival (MTT assay), FOLFOX-resistant-HCT116; type: cell-based; conditions: Homo sapiens, FOLFOX-resistant HCT-116, 48 h
Method: In some experiments, 5-FU, leucovorin and oxaliplatin (FOLFOX)-resistant-HCT-116 and FOLFOX-resistant-HT29 cells were used. These cells were obtained from Dr. Adhip P. Majumdar (John D. Dingell VA Medical Center, Detroit, MI). These cells were generated by exposure to clinically relevant doses and schedules. The exposing schedule was for 12 cycles; each cycle lasted for one week. Briefly, the cells were first exposed to FOLFOX (25 μM 5-FU and 0.625 μM oxaliplatin) for 72 hours. The surviving cells were then cultured in normal medium without the drugs for 4 to 5 days. This cycle was repeated 12 times. The surviving cells were then split and exposed to higher doses of FOLFOX (50 μM 5-FU + 1.25 μM oxaliplatin or 100 μM 5-FU + 2.5 μM oxaliplatin) for 2 to 3 days per week for approximately 4 weeks. […]
The survival of cells was determined by MTT (3-(4,5-Dimethylthiazol-2yl-)-2,5-diphenyl tetrazolium bromide) assay (ATCC, Manassas, VA, USA). In principle, the viable cell number is directly proportional to the purple formazan color of the reduced MTT dye, which can be quantitatively measured by spectrophotometry. […] The developed color density was then measured spectrophotometrically at 570 nm using the POLARstar Omega micro-plate reader (BMG Labtech, Inc., Cary, NC, USA).

[2] = test system: Chk1 phosphorylation in CA2 cells; assay: Western blot of total and phosphorylated Chk1, CA2; type: cell-based, human; conditions: NSC49L alone, 24 h
Method: The levels of various proteins were determined by Western blot analysis with our previously described procedure. The antibodies for phospho-Chk1(Ser317), phospho-Chk1(Ser317), phospho-Chk1(Ser319), phospho-Chk1(Ser345), Chk1, and GAPDH were purchased from Cell Signaling Technology (Danvers, MA, USA).

[3] = test system: ALDH1, KLF4, Nanog, Oct4, Sox2, c-Myc mRNA in CA2 cells; assay: Stem cell marker and self-renewal gene mRNA levels by qRT-PCR; type: cell-based, human; conditions: 72 h
Method: Total RNA was isolated from control and treated cells with RNAzol reagent (Invitogen, Carlsbad, CA, USA). The expression of mRNA levels of stemness genes was determined by qRT-PCR using Bio-Rad CFX96 Real Time System C1000 Thermal Cycler. The primers used for amplification of mRNA levels of genes were from Celprogen, Inc., as shown here with their Gene Bank accession and catalog numbers: ALDHA1 (NM_000689, Cat. No. CepALDHA1-02), Klf4 (NM_004235, Cat No. CepKlf4-02), Nanog (NM_024865, Cat. No. CepNanog-02), Oct4 (NM_002701, Cat No. CepOct4-02), Sox2 (NM_003106, Cat. No. CepSox2-02), c-Myc (NM_002467, Cat. No. Cepc-Myc-02) and GAPDH (NM_002046, Cat. No. Cep-GAPDH-02).

[4] = test system: γH2AX(S139P)-foci in HCoEpiC cells; assay: γH2AX(S139P)-foci IHC staining, HCoEpiC; type: cell-based, human; conditions: NSC49L alone or in combination with 5-FU, 24 h
[5] = test system: γH2AX(S139P)-foci in CA2 cells; assay: γH2AX(S139P)-foci IHC staining, CA2; type: cell-based, human; conditions: 24 h
[6] = test system: HCoEpiC normal colonic epithelial cell line; assay: Cell survival (MTT assay), HCoEpiC; type: cell-based; conditions: Homo sapiens, drug alone, 48 h
Method: as §1

[7] = test system: human-derived CRC stem cell tumors; assay: Patient-derived tumor xenograft (PDTX) of CRC stem cell tumors; type: in vivo, female SCID mice; conditions: 50 mg/kg body weight NSC49L every day, 30 days
Method: With the pharmacokinetics analysis and MTD data in hand, we determined the efficacy of NSC49L and 5-FU alone and in combination for the growth of human-derived CRC stem cell tumors in vivo. CRC stem cells were isolated and characterized from the freshly resected human CRC tumor. One thousands of these CRC stem cells were injected subcutaneously into the right flank of the four 5-week old female SCID mice. After 20 days the first generation tumors (F0) of approximately 2,000 mm^3 in size were harvested. They were divided into four equal pieces and implanted under the skin of the female SCID mice for the growth of second generation tumors (F1) for testing the drug efficacy studies. We divided the F1 tumor bearing mice into four groups and treated them every day subcutaneously with drugs as follows: i) PBS control, (ii) 50 mg/kg body weight NSC49L, (iii) 20 mg/kg body weight 5-FU, and iv) 50 and 20 mg/kg body weight NSC49L and 5-FU, respectively, for 30 days. The treatment with drugs began after 10 days of tumor growth. The body weight and tumor volumes were recorded twice a weak. The experiment was terminated on the 32nd day.

LoVo cells = assay: Cell survival (MTT assay), LoVo; type: cell-based; conditions: Homo sapiens, drug alone, 48 h
Method: as §1

[8] = test system: γH2AX(S139P)-foci in HCT-116 cells; assay: γH2AX(S139P)-foci IHC staining, HCT-116; type: cell-based, human; conditions: 24 h
[9] = NSC49L in combination with 5-FU

ClC/C=C/C[N+]12CN3CN(CN(C3)C1)C2 [NSC49L]
IC50 (LS174T cells): 4.6 ± 0.8 µM
IC50 [1]: 5.4 µM
Chk1(S317P) and Chk1(S296P) levels [2]: very little change
Chk1(S345P) level [2]: increase in a dose-dependent manner
mRNA levels of ALDH1, KLF4 and Nanog ([3]; NSC49L combined with 5-FU): further decreased
mRNA levels of ALDH1, KLF4, Nanog, Oct4, Sox2 and c-Myc ([3]; drug alone, normalized with GAPDH): decreased
replication stress-mediated DNA damage (γH2AX(S139P)-foci) [4]: no effect
γH2AX(S139P)-foci ([5]; NSC49L alone): increased
γH2AX(S139P)-foci [5, 9]: further increased
IC50 [6]: 31.9 ± 0.9 µM
Growth of CRC stem cell tumors [7]: significant growth inhibition
IC50 (LoVo cells): 4.2 ± 0.1 µM
γH2AX(S139P)-foci ([8]; NSC49L alone): increased
γH2AX(S139P)-foci [8, 9]: further increased
